# Data taken from US6482827B1, “Matrix metalloproteinase inhibitors” (Pharmacia & Upjohn S.p.A., priority 1997, dated 2002).
# pKi: −log10 of the molar value.
# Assays:
# [1] = biological target: T1, Human collagenase (MMP-1) (Homo sapiens, UniProt P03956); assay: Biochemical assay (Protocol A), Ki at steady state, MMP-1; settings: preincubation, 37° C., pH=7.4, read-out: Ki at steady state (Ki*) for inhibition of MMP-1
# T1 sequence (P03956 101-269): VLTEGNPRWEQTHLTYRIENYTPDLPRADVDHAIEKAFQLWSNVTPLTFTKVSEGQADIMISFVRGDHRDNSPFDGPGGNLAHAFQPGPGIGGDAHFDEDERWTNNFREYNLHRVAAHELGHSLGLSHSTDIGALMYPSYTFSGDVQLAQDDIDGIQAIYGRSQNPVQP
# Experimental: (§1) Human gelatinase-A (MMP-2) was obtained as pro-enzyme (72 kDa) and was activated with 1 mM 4-aminophenylmercuric acetate for 30 min at 37° C. immediately prior to use. Human stromelysin-1-255 (MMP-3) was obtained as a recombinant pro-enzyme isolated from E. coli and activated by heat (1 h, 55° C.).
# (§2) The substrate was the commercial quenched-fluorescence peptide Mca-Pro-Leu-Gly-Leu-Dpa-Ala-Arg-NH2, that is (7-methoxycoumarin4-yl)Acetyl-Pro-Leu-Glv-Leu-(3-[2,4-dinitrophenyl]-L-2,3-diamino-propionyl)-Ala-Arg-NH2 (C. G. Knight et al., FEBS Lett.296:263, 1992). The enzymes cleave at the Gly-Leu bond, removing the internally quenching Dpa group. Release of the highly fluorescent peptide Mca-Pro-Leu was followed fluorimetrically at 37° C. using a Perkin Elmer LS-50 Fluorescence Spectrophotometer fitted with a thermostatted four position stirring cell changer. The excitation wavelength was set at 326 nm (bandwidth 5 nm) and the emission at 392 nm (bandwidth 20 nm). Km values of this substrate for the three MMP's is 70 μM or more (Knight et al., reference above). Substrate concentration was 2 μM in the tests, so that we could approximate to unit the term (1+[substrate]/KM) in calculations. The substrate was stable for over 60 minutes in the assay conditions, giving no appreciable increment of fluorescence. Full response was adjusted against 200 nM Mca-Pro-Leu-OH (the released fluorescent peptide) and the instrument was calibrated in the range 0-100 nM Mca-Pro-Leu-OH, corresponding to 0-5% extent of hydrolysis of the 2 μM substrate. The aqueous assay buffer was 50 mM Tris/HCl pH=7.4 containing 0.15 M NaCl, 10 mM CaCl2, 0.01 mM ZnCl2 and 0.05% Brij 35. The concentration of the activated enzyme was determined by titration against representative inhibitors described in the literature and synthesized in house: Roche Ro31-9790 (N. G. Knebel et al., J. Chromatogr. B 673:213, 1995) for MMP-1, and Celltech CT-1418 (compound 1 in S. K. Chander, J. Pharm. Sci. 84:404, 1995) for MMP-2 and MMP-3. Enzyme concentrations in the tests were set at 1.0 nM for MMP-1, 0.04 nM for MMP-2, and 3.0 nM for M-3. Under our assay conditions, we measured keat/KM values of 26900, 669000 and 9740 1/(M×s) for MMP-1, MMP-2 and MMP-3, respectively. All the three enzymes were found stable for over three hours in the assay conditions.
# (§3) The inhibition constant for compounds of the present invention was measured at steady state (Ki*; see J. F. Morrison and C. T. Walsh, Adv. Enzymol. Relat. Areas Mol. Biol. 61:201, 1988), upon preincubation experiment, by measuring V0, the initial rate in the absence of inhibitor, and Vs, the steady-state velocity, at different concentrations of inhibitors in the region of their enzyme-inhibitor dissociation constants.
# (§4) On a routine basis, 1.94 mL of assay buffer was pre-heated at 37° C. in a vial, 0.02 mL of inhibitor in DMSO (or DMSO only), and 0.02 ml of 100 nM MMP-1 or 4 nM MMP-2 or 300 nM MMP-3 were added, mixed, and the vial was held at 37° C. for 5-180 minutes. Then 0.02 ml of 0.2 mM substrate was added, mixed and transferred into a pre-heated cell. The sample was allowed to equilibrate in the cuvette for 3-5 min at 37° C. against small changes in temperature and changes in the enzyme-inhibitor equilibria related to addition of substrate. After that, the linear increase of fluorescence was monitored over 3-5 min, and the slope (Vo or Vs) was obtained. Inhibitor concentrations were varied to collect data over Vs/Vo ratio ranging from 0.05 to 0.95. The values of Ki* were calculated by nonlinear weighted regression to the tight-binding equation according to Morrison and Walsh above:
# (§5) Vs/Vo=[1/(2×Et)]×SQR[(Ki*+It−Et)^2+4×Ki*×Et]−(Ki*+It−Et)
# (§6) wherein Et is the total enzyme concentration, and It is the total inhibitor concentration. The following Table I lists Ki* obtained for some representative examples: […]
# [2] = biological target: T2, Human gelatinase-A (MMP-2) (Homo sapiens, UniProt P08253); assay: Biochemical assay (Protocol A), Ki at steady state, MMP-2; settings: preincubation, 37° C., pH=7.4, read-out: Ki at steady state (Ki*) for inhibition of MMP-2
# T2 sequence (P08253 110-660): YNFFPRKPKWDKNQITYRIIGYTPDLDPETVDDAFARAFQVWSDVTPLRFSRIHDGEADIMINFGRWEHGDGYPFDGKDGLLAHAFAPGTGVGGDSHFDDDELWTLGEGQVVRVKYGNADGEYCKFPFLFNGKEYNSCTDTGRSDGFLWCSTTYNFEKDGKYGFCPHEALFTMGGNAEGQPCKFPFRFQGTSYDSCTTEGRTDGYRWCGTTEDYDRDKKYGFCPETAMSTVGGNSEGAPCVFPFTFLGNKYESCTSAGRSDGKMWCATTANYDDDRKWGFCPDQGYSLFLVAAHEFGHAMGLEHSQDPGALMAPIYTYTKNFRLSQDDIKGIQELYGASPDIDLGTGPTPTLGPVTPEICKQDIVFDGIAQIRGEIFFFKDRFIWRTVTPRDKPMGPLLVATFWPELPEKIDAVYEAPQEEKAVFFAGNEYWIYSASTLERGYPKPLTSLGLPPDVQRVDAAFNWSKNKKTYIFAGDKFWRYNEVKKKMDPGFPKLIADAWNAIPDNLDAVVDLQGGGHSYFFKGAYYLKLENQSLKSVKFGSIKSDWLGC
# Experimental: as §1, §2, §3, §4, §5, §6
# [3] = biological target: T3, Human stromelysin-1-255 (MMP-3) (Homo sapiens, UniProt P08254); assay: Biochemical assay (Protocol A), Ki at steady state, MMP-3; settings: preincubation, 37° C., pH=7.4, read-out: Ki at steady state (Ki*) for inhibition of MMP-3
# T3 construct: host or cells: E. coli
# Experimental: as §1, §2, §3, §4, §5, §6
# T3 sequence (P08254 100-255 limits assumed): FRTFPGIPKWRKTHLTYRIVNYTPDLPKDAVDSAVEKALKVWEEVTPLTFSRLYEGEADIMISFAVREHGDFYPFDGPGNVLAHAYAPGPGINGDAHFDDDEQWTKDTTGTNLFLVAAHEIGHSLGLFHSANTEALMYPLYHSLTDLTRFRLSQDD
Structure (SMILES),pKi [1],pKi [2],pKi [3]
"CN(C)[C@H](C(=O)NO)[C@@H](CC1CCCC1)C(=O)N1CCN(Cc2ccc3c(c2)OCO3)CC1 [Example 35, (2R-Cyclopentylmethyl-3S-N,N-dimethylamino-4-hydroxyamino)succinyl-(4-piperonyl)-piperazinamide]",8.54,8.10,7.51
"CC(C)C[C@@H](C(=O)NC(c1ccccc1)c1ccccc1)[C@H](N)C(=O)NO [Example 25, (3S-Amino-4-hydroxyamino-2R-isobutyl)succinyl-diphenylmethylamide]",7.12,6.72,5.64
"COc1ccc(CCC[C@@H](C(=O)N2CCC(C(=O)NC(C)(C)C)CC2)[C@H](N)C(=O)NO)cc1 [Example 34, (3S-Amino-4-hydroxyamino-2R-(4-methoxy)phenpropyl)succinyl-(4-tert-butylaminocarbonyl)piperidinamide]",5.62,7.68,5.85
"CC(C)C[C@@H](C(=O)NC(C1CCCCC1)C1CCCCC1)[C@H](N)C(=O)NO [Example 24, (3S-Amino-4-hydroxyamino-2R-isobutyl)succinyl-dicyclohexylmethylamide]",6.77,6.40,4.96
"COc1ccc(CCC[C@@H](C(=O)N2CCN(c3ccccn3)CC2)[C@H](N)C(=O)NO)cc1 [Example 42, (3S-Amino-4-hydroxyamino-2R-(4-methoxy)phenpropyl)succinyl-4-(2-pyridyl)piperazinamide]",5.85,7.80,6.12
"COc1ccc(S(=O)(=O)N[C@H](C(=O)NO)[C@@H](CC2CCCC2)C(=O)N2CCCCC2)cc1 [Example 23, (2R-Cyclopentylmethyl-4-hydroxyamino-3S-(4-methoxyphenylsulfonyl)amino)succinyl-piperidinamide]",8.52,7.80,6.84
"COc1ccc(CCC[C@@H](C(=O)N2CCCCC2)[C@H](NC(=O)OC(C)(C)C)C(=O)NO)cc1 [Example 17, (3S-tert-Butoxycarbonylamino-4-hydroxyamino-2R-(4-methoxy)phenpropyl)succinyl-piperidinamide]",5.03,6.21,5.37
"COc1ccc(CCC[C@@H](C(=O)N2CCCCC2)[C@H](NCc2cccnc2)C(=O)NO)cc1 [Example 39, (4-Hydroxyamino-2R-(4-methoxy)phenpropyl-3S-(3-pyridyl)methylamino)succinyl-piperidinamide]",6.12,7.05,6.09
"CNC(=O)[C@H](Cc1ccccc1)N(C)C(=O)[C@H](CC(C)C)[C@H](N)C(=O)NO [Example 44, (3S-Amino-4-hydroxyamino-2R-isobutyl)succinyl-N-methyl-N-(1S-methylaminocarbonyl-2-phenyl)ethylamide]",8.05,8.64,6.68
"CN(C)[C@H](C(=O)NO)[C@@H](CC1CCCC1)C(=O)N1CCCCC1 [Example 30, (2R-Cyclopentylmethyl-3S-N,N-dimethylamino-4-hydroxyamino)succinyl-piperidinamide]",8.44,7.60,6.57
"COc1ccc(CCC[C@@H](C(=O)N[C@@H](C)C2CCCCC2)[C@H](N)C(=O)NO)cc1 [Example 33, (3S-Amino-4-hydroxyamino-2R-(4-methoxy)phenpropyl)succinyl-(1S-cyclohexylethyl)amide]",< 5.00,6.34,5.18
"COc1ccc(CCC[C@@H](C(=O)N2CCOCC2)[C@H](NS(=O)(=O)c2ccc(OC)cc2)C(=O)NO)cc1 [Example 20, (4-Hydroxyamino-3S-(4-methoxyphenylsulfonyl)amino-2R-(4-methoxy)phenpropyl)succinyl-morpholinamide]",5.70,7.40,6.41
"O=C(NO)[C@@H](NS(=O)(=O)c1ccc(F)cc1)[C@@H](CC1CCCC1)C(=O)N1CCCCC1 [Example 61, (2R-Cyclopentylmethyl-3S-(4-fluorophenylsulfonyl)amino-4-hydroxyamino)succinylpiperidinamide]",8.11,7.18,
"COc1ccc(CCC[C@@H](C(=O)N2CCC2)[C@H](N)C(=O)NO)cc1 [Example 28, (3S-Amino-4-hydroxyamino-2R-(4-methoxy)phenpropyl)succinyl-azetidinamide]",5.12,6.22,5.00
"COc1ccc(CCC[C@@H](C(=O)N2CCOCC2)[C@H](NC(=O)OC(C)(C)C)C(=O)NO)cc1 [Example 15, (3S-tert-Butoxycarbonylamino-4-hydroxyamino-2R-(4-methoxy)phenpropyl)succinyl-morpholinamide]",4.77,6.20,5.19
"CC(C)(C)OC(=O)N[C@H](C(=O)NO)[C@@H](CC1CCCC1)C(=O)N1CCN(Cc2ccc3c(c2)OCO3)CC1 [Example 26, (3S-tert-Butoxycarbonylamino-2R-cyclopentylmethyl-4-hydroxyamino)succinyl-(4-piperonyl)piperazinamide]",7.15,7.00,6.22
"CS(=O)(=O)N[C@H](C(=O)NO)[C@@H](CC1CCCC1)C(=O)N1CCN(Cc2ccc3c(c2)OCO3)CC1 [Example 47, (2R-Cyclopentylmethyl-4-hydroxyamino-3S-(methylsulfonyl)amino)succinyl-(4-piperonyl)piperazinamide]",8.34,7.55,6.85
"COc1ccc(CCC[C@@H](C(=O)N[C@H](C)C2CCCCC2)[C@H](N)C(=O)NO)cc1 [Example 32, (3S-Amino-4-hydroxyamino-2R-(4-methoxy)phenpropyl)succinyl-(1R-cyclohexylethyl)amide]",5.59,7.43,6.30
